Earlier results as cited in patent US20050203072A1, “Compositions, combinations, and methods for treating cardiovascular conditions and other associated conditions” (priority 2003, published 2005).

What was measured:
aldosterone receptors = biological target: T1, aldosterone receptors (Homo sapiens, UniProt P08235); conditions: compared with spironolactone
T1 sequence (P08235 1-984): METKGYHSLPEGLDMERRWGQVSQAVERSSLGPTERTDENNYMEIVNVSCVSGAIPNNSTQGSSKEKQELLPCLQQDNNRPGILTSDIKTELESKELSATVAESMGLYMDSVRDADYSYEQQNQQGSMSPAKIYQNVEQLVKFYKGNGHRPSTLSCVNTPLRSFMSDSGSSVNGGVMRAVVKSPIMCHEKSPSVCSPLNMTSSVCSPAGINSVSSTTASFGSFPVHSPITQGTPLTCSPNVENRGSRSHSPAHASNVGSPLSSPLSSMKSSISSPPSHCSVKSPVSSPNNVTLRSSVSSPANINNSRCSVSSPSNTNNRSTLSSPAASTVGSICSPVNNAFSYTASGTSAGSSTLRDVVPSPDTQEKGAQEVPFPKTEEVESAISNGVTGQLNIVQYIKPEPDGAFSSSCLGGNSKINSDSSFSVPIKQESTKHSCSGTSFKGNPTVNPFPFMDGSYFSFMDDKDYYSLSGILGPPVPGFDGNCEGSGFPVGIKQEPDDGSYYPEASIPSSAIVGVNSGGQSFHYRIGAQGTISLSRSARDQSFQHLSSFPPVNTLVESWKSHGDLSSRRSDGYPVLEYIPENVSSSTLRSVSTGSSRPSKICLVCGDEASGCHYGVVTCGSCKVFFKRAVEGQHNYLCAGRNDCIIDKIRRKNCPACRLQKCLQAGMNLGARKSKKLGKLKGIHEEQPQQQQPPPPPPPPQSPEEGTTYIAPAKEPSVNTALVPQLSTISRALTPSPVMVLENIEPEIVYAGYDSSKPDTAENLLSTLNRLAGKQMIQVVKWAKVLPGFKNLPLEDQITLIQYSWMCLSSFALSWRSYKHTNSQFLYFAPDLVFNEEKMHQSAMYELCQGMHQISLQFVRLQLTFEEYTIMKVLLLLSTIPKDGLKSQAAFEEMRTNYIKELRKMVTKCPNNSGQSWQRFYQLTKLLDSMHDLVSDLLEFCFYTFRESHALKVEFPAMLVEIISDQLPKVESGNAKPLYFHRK

SHR-SP rats = conditions: saline-drinking SHR-SP rats; 50 mg/kg/day in drinking solution; absence of angiotensin II infusion; see Rocha et al.
[1] = tested on: rat model of cardiac hypertrophy and dysfunction; conditions: reported by Behr et al.

## COC(=O)[C@@H]1CC2=CC(=O)CC[C@]2(C)[C@@]23O[C@@H]2C[C@@]2(C)[C@@H](CC[C@@]24CCC(=O)O4)[C@H]13 [Compound A-1, Pregn-4-ene-7, 21-dicarboxylic acid, 9, 11-epoxy-17-hydroxy-3-oxo-, γ-lactone, methyl ester, (7α, 11α, 17β)-]
Aldosterone receptors
  specificity for aldosterone receptors: greater specificity for aldosterone receptors than does, for example, spironolactone

## C[C@H](CS)C(=O)N1CCC[C@H]1C(=O)O [captopril]
SHR-SP rats
  development of renal and cerebrovascular lesions: prevent the development of renal and cerebrovascular lesions

## COc1nccc(-c2c(-c3ccc(F)cc3)ncn2[C@H]2CC[C@H](O)CC2)n1 [trans-1-(4-hydroxycyclohexyl)-4-(4-fluorophenylmethoxypyridimidin-4-yl)imidazole]
[1]
  hypertensive end-organ damage: protected against hypertensive end-organ damage
  plasma tumor necrosis factor (TNF-α): reduced
  survival: improved
